Source: patent publication US10670605B2, “Cysteine reactive probes and uses thereof” (The Scripps Research Institute, priority 2015, dated 2020)

Assays:
Assay in all cases: Competitive isoTOP-ABPP in situ (fragment-treated cells)
Format in all cases: cell-based
[1] = target: T1, cysteines in MDA-MB-231 and Ramos cells (Homo sapiens, UniProt Q5T440)
T1 sequence (Q5T440 40-356): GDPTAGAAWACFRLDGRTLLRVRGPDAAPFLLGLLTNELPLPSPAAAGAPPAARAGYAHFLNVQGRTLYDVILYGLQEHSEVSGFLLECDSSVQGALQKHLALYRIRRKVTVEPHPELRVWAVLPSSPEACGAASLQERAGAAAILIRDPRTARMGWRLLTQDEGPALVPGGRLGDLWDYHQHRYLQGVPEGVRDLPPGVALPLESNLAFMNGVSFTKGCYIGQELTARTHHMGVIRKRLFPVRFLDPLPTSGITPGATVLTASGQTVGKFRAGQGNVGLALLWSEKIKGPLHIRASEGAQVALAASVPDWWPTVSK

[2] = target: T2, cysteines in MDA-MB-231 and Ramos cells (Homo sapiens, UniProt Q96F86)
T2 sequence (Q96F86 1-508): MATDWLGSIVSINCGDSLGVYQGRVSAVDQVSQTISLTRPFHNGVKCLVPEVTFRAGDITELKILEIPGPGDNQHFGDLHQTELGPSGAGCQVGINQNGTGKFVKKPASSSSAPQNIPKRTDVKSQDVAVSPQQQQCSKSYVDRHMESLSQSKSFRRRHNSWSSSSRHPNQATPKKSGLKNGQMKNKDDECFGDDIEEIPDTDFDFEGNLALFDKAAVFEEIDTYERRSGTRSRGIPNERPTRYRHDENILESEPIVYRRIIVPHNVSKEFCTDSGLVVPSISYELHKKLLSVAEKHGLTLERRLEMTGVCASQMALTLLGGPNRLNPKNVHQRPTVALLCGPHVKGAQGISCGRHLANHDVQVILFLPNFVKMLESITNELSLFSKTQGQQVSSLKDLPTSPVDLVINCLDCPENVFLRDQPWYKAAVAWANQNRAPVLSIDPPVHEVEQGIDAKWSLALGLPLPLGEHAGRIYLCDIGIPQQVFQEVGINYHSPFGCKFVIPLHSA

[3] = target: cysteines in MDA-MB-231 and Ramos cells (Homo sapiens, UniProt O14933); conditions: for isoTOP-ABPP ratio, cysteine O14933_C98 / isoTOP-ABPP ratio O14933_C98: 200 μM, insitu
[4] = target: T3, cysteines in MDA-MB-231 and Ramos cells (Homo sapiens, UniProt Q9NY27)
T3 sequence (Q9NY27 1-417): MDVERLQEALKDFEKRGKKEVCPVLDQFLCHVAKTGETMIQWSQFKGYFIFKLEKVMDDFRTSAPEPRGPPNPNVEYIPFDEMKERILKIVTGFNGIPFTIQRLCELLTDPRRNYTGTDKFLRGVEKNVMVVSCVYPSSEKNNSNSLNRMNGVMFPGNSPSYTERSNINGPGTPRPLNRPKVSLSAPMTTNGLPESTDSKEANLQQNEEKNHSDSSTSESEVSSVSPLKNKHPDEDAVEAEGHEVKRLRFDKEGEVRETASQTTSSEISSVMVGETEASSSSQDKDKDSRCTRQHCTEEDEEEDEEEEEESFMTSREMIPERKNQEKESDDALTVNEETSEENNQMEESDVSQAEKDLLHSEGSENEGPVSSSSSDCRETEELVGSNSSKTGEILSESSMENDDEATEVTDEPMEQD

[5] = target: T4, cysteines in MDA-MB-231 and Ramos cells (Homo sapiens, UniProt Q15345)
T4 sequence (Q15345 1-812): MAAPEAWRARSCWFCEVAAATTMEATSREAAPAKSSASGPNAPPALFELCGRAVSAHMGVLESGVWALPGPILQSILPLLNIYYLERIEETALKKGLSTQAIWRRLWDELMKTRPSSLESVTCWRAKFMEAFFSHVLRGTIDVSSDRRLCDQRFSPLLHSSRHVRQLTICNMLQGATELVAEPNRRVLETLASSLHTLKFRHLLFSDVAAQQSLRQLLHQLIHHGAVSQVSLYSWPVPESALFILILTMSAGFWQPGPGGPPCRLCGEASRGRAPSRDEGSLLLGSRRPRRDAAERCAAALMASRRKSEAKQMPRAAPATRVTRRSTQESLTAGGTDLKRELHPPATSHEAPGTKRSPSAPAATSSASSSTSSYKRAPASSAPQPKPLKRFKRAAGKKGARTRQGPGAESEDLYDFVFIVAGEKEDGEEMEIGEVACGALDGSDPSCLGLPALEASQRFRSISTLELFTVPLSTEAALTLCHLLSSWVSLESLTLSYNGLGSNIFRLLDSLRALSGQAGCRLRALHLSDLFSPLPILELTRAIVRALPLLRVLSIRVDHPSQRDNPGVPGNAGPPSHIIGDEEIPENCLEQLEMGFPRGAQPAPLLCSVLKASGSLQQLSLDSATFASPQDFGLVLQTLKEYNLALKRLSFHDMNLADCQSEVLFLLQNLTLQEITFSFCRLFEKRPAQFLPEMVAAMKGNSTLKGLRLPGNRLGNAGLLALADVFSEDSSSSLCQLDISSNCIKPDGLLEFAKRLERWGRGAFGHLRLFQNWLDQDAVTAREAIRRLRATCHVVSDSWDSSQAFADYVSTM

Chain of cysteines in MDA-MB-231 and Ramos cells (Homo sapiens, UniProt O14933) (O14933 whole entry): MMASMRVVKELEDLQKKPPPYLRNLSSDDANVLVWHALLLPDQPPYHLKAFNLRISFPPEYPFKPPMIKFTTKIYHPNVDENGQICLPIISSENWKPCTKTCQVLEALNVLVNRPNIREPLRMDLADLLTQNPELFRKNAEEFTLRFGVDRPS

## COc1ccc2c(c1)CCCN2C(=O)CCl [compound 2]
[1]; 200 μM, insitu, 231
  isoTOP-ABPP reactivity Q5T440_C170 IBA57: 14.0
[2]; 200 μM, insitu, 231
  isoTOP-ABPP reactivity Q96F86_C413 EDC3: 20.0

## COc1ccc(C2CC(c3cccs3)=NN2C(=O)CCl)cc1 (stereo not drawn) [compound 4]
[1]; 100 μM in situ 231
  isoTOP-ABPP reactivity Q5T440_C170 IBA57: 1.5
[2]; 100 μM in situ 231
  isoTOP-ABPP reactivity Q96F86_C413 EDC3: 20.0
[3]; 100 μM in situ 231
  isoTOP-ABPP reactivity O14933_C98 UBE2L6: 3.0

## O=C(CCl)N1CCN(S(=O)(=O)c2ccccc2F)CC1 [compound 10]
[1]; 200 μM, insitu, 231
  isoTOP-ABPP ratio Q5T440_C170: 5.7
[4]; 200 μM, insitu, ramos
  isoTOP-ABPP ratio Q9NY27_C22: 2.1
[2]; 200 μM, insitu, 231
  isoTOP-ABPP ratio Q96F86_C413: 20.0
[2]; 200 μM, insitu, ramos
  isoTOP-ABPP ratio Q96F86_C413: 20.0
[3]; 231
  isoTOP-ABPP ratio, cysteine O14933_C98: 20.0
[3]; ramos
  isoTOP-ABPP ratio, cysteine O14933_C98: 3.2

## Cn1cc(S(=O)(=O)N2CCOCC2)cc1C(=O)NC(=O)CCl [compound 11]
[4]; 100 μM in situ 231
  isoTOP-ABPP ratio Q9NY27_C22: 2.3
[2]; 100 μM in situ 231
  isoTOP-ABPP ratio Q96F86_C413: 20.0
[5]; 100 μM in situ 231
  isoTOP-ABPP ratio, cysteine Q15345_C297: 1.1

## O=C(CCl)NC(=O)NC12CC3CC(CC(C3)C1)C2 [compound 12]
[4]; 200 μM, insitu, 231
  isoTOP-ABPP ratio Q9NY27_C22: 20.0

## O=C(CCl)NCCc1c[nH]c2ccccc12 [compound 13]
[1]; 200 μM, insitu, 231
  isoTOP-ABPP ratio Q5T440_C170: 1.2
[4]; 200 μM, insitu, ramos
  isoTOP-ABPP ratio Q9NY27_C22: 1.5
[2]; 200 μM, insitu, 231
  isoTOP-ABPP ratio Q96F86_C413: 1.6
[2]; 200 μM, insitu, ramos
  isoTOP-ABPP ratio Q96F86_C413: 2.0
[5]; 200 μM, insitu, 231
  isoTOP-ABPP ratio, cysteine Q15345_C297: 1.6

## O=C(CCl)NC12CC3CC(CC(C3)C1)C2 [compound 21]
[1]; 200 μM, insitu, 231
  isoTOP-ABPP ratio Q5T440_C170: 1.6
[2]; 200 μM, insitu, 231
  isoTOP-ABPP ratio Q96F86_C413: 0.8
[3]; 231
  isoTOP-ABPP ratio, cysteine O14933_C98: 0.7
[5]; 200 μM, insitu, 231
  isoTOP-ABPP ratio, cysteine Q15345_C297: 1.1

## CC(C)CCOCCNC(=O)CCl [compound 27]
[2]; 200 μM, insitu, 231
  isoTOP-ABPP ratio Q96F86_C413: 0.7

## O=C(CCl)N1CCN(CC(=O)N2CCOCC2)CC1 [compound 29]
[1]; 200 μM, insitu, ramos
  isoTOP-ABPP ratio Q5T440_C170: 1.3
[4]; 200 μM, insitu, ramos
  isoTOP-ABPP ratio Q9NY27_C22: 1.7
[2]; 200 μM, insitu, ramos
  isoTOP-ABPP ratio Q96F86_C413: 1.9
[3]; ramos
  isoTOP-ABPP ratio O14933_C98: 2.4

## C=CC(=O)N(Cc1cccnc1)c1cc(C(F)(F)F)cc(C(F)(F)F)c1 [compound 31]
[2]; 200 μM, insitu, ramos
  isoTOP-ABPP ratio Q96F86_C413: 1.3
[3]; ramos
  isoTOP-ABPP ratio O14933_C98: 1.9
[5]; 200 μM, insitu, 231
  isoTOP-ABPP ratio Q15345_C297: 0.9

## C=CC(=O)Nc1cc(F)c(N2CCN(C(=O)OC(C)(C)C)CC2)c(F)c1 [compound 38]
[4]; 200 μM, insitu, 231
  isoTOP-ABPP ratio Q9NY27_C22: 1.0
[3]; 231
  isoTOP-ABPP ratio O14933_C98: 1.6
[5]; 200 μM, insitu, 231
  isoTOP-ABPP ratio Q15345_C297: 1.4

## Cc1ccc(C=C(C#N)C(=O)NCCN2CCOCC2)cc1 [compound 41]
[1]; 200 μM, insitu, 231
  isoTOP-ABPP ratio Q5T440_C170: 0.7
[4]; 200 μM, insitu, 231
  isoTOP-ABPP ratio Q9NY27_C22: 0.8
[3]; 231
  isoTOP-ABPP ratio O14933_C98: 0.5
[5]; 200 μM, insitu, 231
  isoTOP-ABPP ratio Q15345_C297: 0.8

## CC1CCc2ccccc2N1C(=O)CCl (stereo not drawn) [compound 45]
[1]; 200 μM, insitu, 231
  isoTOP-ABPP ratio Q5T440_C170: 3.5
[4]; 200 μM, insitu, 231
  isoTOP-ABPP ratio Q9NY27_C22: 20.0
[2]; 200 μM, insitu, 231
  isoTOP-ABPP ratio Q96F86_C413: 20.0
[3]; 231
  isoTOP-ABPP ratio O14933_C98: 20.0

## O=C(CCl)Nc1cccc2ncccc12 [compound 51]
[4]; 200 μM, insitu, 231
  isoTOP-ABPP ratio Q9NY27_C22: 2.2
[2]; 200 μM, insitu, 231
  isoTOP-ABPP ratio Q96F86_C413: 20.0
